This is an account of results in ChEMBL document CHEMBL4420076, “Amylin and calcitonin receptor agonist” (2017).

In brackets after ≈: the same amount, converted by molar mass. Numbered stars: 1 amine (or outer) side, 2 acyl side, 3 side chain; on linkers, the order of the positions; unused ones are H or OH. Peptide text beside a SMILES is read from it. * marks the point of attachment. C20 diacid = O=C(O)CCCCCCCCCCCCCCCCCCC(=O)*; C18 diacid = O=C(O)CCCCCCCCCCCCCCCCC(=O)*; γGlu = O=C(O)[C@H](CCC(=O)[*:2])N[*:1]; C12 diacid = O=C(O)CCCCCCCCCCC(=O)* Some results are limits rather than exact numbers.

The subject of data set [1] is Rattus norvegicus. Nature of the data set: Reduction in food intake in Sprague-Dawley rat at 3 nmol/kg measured 0 to 24 hrs post dose relative to control. In kind it is functional. The arrangement: scale not given: the % may be the effect or the level left.
Data set [2] concerns Rattus norvegicus. Nature of the data set: Reduction in food intake in Sprague-Dawley rat at 3 nmol/kg measured 24 to 48 hrs post dose relative to control. Also noted: scale not given: the % may be the effect or the level left. In kind it is functional.
In data set [3] the target is T1, Amylin receptor AMY3; CALCR/RAMP3 (Homo sapiens, UniProt O60896+P30988).
T1 sequence (P30988 whole entry): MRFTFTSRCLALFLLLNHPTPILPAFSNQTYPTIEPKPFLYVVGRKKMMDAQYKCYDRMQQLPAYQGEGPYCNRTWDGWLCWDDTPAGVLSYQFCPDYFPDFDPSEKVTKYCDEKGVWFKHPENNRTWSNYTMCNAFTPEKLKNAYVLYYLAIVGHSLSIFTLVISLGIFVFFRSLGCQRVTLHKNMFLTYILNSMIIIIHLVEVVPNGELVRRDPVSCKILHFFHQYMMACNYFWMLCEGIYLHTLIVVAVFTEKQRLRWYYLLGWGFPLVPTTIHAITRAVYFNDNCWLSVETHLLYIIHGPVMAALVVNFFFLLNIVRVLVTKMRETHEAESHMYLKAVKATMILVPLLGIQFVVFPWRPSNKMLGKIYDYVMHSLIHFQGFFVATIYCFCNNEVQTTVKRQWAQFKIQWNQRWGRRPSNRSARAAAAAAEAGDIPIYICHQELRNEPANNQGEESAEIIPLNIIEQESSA
T1 sequence (O60896 whole entry): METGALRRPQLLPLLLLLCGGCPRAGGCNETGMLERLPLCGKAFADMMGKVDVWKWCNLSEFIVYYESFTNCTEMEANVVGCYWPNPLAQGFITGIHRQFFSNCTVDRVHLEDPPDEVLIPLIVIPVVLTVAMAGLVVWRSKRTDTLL
Nature of the data set: Agonist activity at human amylin receptor expressed in BHK570 cells co-expressing RAMP3 assessed as increase in intracellular cAMP concentration incubated for 3 hrs in absence of albumin by CRE luciferase reporter gene assay. Format: functional, cell-based. (In general: In a reporter assay the amount or activity of a reporter protein is the signal.)

Data set [4] deals with T2, Calcitonin receptor (Homo sapiens, UniProt P30988).
T2 sequence (P30988 whole entry): T1 sequence (P30988 whole entry)
Nature of the data set: Agonist activity at human calcitonin receptor expressed in BHK570 cells assessed as increase in intracellular cAMP concentration incubated for 3 hrs in absence of albumin by CRE luciferase reporter gene assay. In kind it is functional, cell-based.

Data set [5] in a line: Solubility in 100 mM bistrispropane buffer at pH 6.5 incubated for 18 hrs by UPLC analysis. Format: physicochemical.
For data set [6], the target named is T1, Amylin receptor AMY3; CALCR/RAMP3. Nature of the data set: Displacement of [125I]-labeled rat amylin from human amylin receptor expressed in BHK tkts13 whole cells co-expressing RAMP3 incubated for 60 mins by scintillation proximity assay. In kind it is cell-based.
Data set [7] concerns the target T2, Calcitonin receptor. Nature of the data set: Agonist activity at human calcitonin receptor expressed in BHK570 cells assessed as increase in intracellular cAMP concentration incubated for 3 hrs in presence of 10% FBS by CRE luciferase reporter gene assay. Format: functional, cell-based.
The nature of data set [8]: Solubility in 100 mM glycylglycine buffer at pH 3.0 incubated for 18 hrs by UPLC analysis. Format: physicochemical.
The nature of data set [9]: Solubility in 100 mM glycylglycine buffer at pH 4.0 incubated for 18 hrs by UPLC analysis. In kind it is physicochemical.
A short description of data set [10]: Solubility in 100 mM bistrispropane buffer at pH 6.0 incubated for 18 hrs by UPLC analysis. Format: physicochemical.
Data set [11] can be described thus: Solubility in 100 mM glycylglycine buffer at pH 5.0 incubated for 18 hrs by UPLC analysis. In kind it is physicochemical.
A short description of data set [12]: Solubility in 100 mM bistrispropane buffer at pH 7.0 incubated for 18 hrs by UPLC analysis. In kind it is physicochemical.
Data set [13] is described as follows: Solubility in 100 mM bistrispropane buffer at pH 7.5 incubated for 18 hrs by UPLC analysis. Format: physicochemical.
Data set [14] can be described thus: Solubility in 100 mM bistrispropane buffer at pH 8.0 incubated for 18 hrs by UPLC analysis. Format: physicochemical.
Data set [15] addresses T1, Amylin receptor AMY3; CALCR/RAMP3. Nature of the data set: Agonist activity at human amylin receptor expressed in BHK570 cells co-expressing RAMP3 assessed as increase in intracellular cAMP concentration incubated for 3 hrs in presence of 10% FBS by CRE luciferase reporter gene assay. In kind it is functional, cell-based.

Turning to `CC(C)C[C@H](NC(=O)[C@H](C)NC(=O)[C@H](C)NC(=O)[C@@H](NC(=O)[C@H](CO)NC(=O)[C@H](CC(C)C)NC(=O)[C@H](CCC(=O)O)NC(=O)[C@H](CO)NC(=O)[C@H](C)NC(=O)[C@H](CCC(=O)O)NC(=O)CCCCCCCCCCC(=O)O)[C@@H](C)O)C(=O)NCC(=O)N[C@@H](CCCNC(=N)N)C(=O)N[C@@H](CC(C)C)C(=O)N[C@@H](CO)C(=O)N[C@@H](C)C(=O)N[C@@H](CCC(=O)O)C(=O)N[C@@H](CC(C)C)C(=O)N[C@@H](Cc1cnc[nH]1)C(=O)N[C@@H](CCC(=O)O)C(=O)N[C@@H](CC(C)C)C(=O)N[C@@H](C)C(=O)N[C@H](C(=O)N[C@@H](CC(C)C)C(=O)N1CCC[C@H]1C(=O)N[C@@H](CCCNC(=N)N)C(=O)N[C@H](C(=O)N[C@@H](CCC(=O)O)C(=O)N[C@H](C(=O)NCC(=O)N1CCC[C@H]1C(=O)N[C@@H](CCC(=O)O)C(=O)N[C@@H](CO)C(=O)N1CCC[C@H]1C(N)=O)[C@@H](C)O)[C@@H](C)O)[C@@H](C)O` ({C12 diacid}-EASELSTAALGRLSAELHELATLPRTETGPESP-NH2), the Activity was 2% in data set [1] and -12% in [2]. The EC50 (commonly the midpoint of the concentration-response curve) in [3] is 0.023 nM; in data set [4], 0.008 nM. Also, the solubility (as a rule, the concentration that dissolves in the medium under given conditions) at 18 h in data set [5] came to 5 µM (≈ 18.2 µg/mL). Also, the concentration for half-maximal inhibition (IC50) (as a rule, the concentration that inhibits the measured activity by half) in data set [6] is 8.97 nM.
With `CC(C)C[C@H](NC(=O)[C@H](C)NC(=O)[C@H](C)NC(=O)[C@@H](NC(=O)[C@H](CO)NC(=O)[C@H](CC(C)C)NC(=O)[C@H](CCC(=O)O)NC(=O)[C@H](CO)NC(=O)[C@H](C)NC(=O)CC[C@H](NC(=O)CCCCCCCCCCCCCCCCC(=O)O)C(=O)O)[C@@H](C)O)C(=O)NCC(=O)N[C@@H](CCCNC(=N)N)C(=O)N[C@@H](CC(C)C)C(=O)N[C@@H](CO)C(=O)N[C@@H](C)C(=O)N[C@@H](CCC(=O)O)C(=O)N[C@@H](CC(C)C)C(=O)N[C@@H](Cc1c[nH]cn1)C(=O)N[C@@H](CCC(=O)O)C(=O)N[C@@H](CC(C)C)C(=O)N[C@@H](C)C(=O)N[C@H](C(=O)N[C@@H](Cc1ccc(O)cc1)C(=O)N1CCC[C@H]1C(=O)N[C@@H](CCCNC(=N)N)C(=O)N[C@H](C(=O)N[C@@H](CCC(=O)O)C(=O)N[C@H](C(=O)NCC(=O)N[C@@H](CO)C(=O)NCC(=O)N[C@@H](CO)C(=O)N1CCC[C@H]1C(N)=O)[C@@H](C)O)[C@@H](C)O)[C@@H](C)O` ({C18 diacid-γGlu}-ASELSTAALGRLSAELHELATYPRTETGSGSP-NH2), the figures for the Activity in data set [1] and in [2] were 74% and 63%, respectively.
As for `CC(C)C[C@H](NC(=O)[C@H](C)NC(=O)[C@H](C)NC(=O)[C@@H](NC(=O)[C@H](CO)NC(=O)[C@H](CC(C)C)NC(=O)[C@H](CCC(=O)O)NC(=O)[C@H](CO)NC(=O)[C@H](C)NC(=O)CC[C@H](NC(=O)CCCCCCCCCCCCCCCCCCC(=O)O)C(=O)O)[C@@H](C)O)C(=O)NCC(=O)N[C@@H](Cc1cnc[nH]1)C(=O)N[C@@H](CC(C)C)C(=O)N[C@@H](CO)C(=O)N[C@@H](C)C(=O)N[C@@H](CCC(=O)O)C(=O)N[C@@H](CC(C)C)C(=O)N[C@@H](Cc1cnc[nH]1)C(=O)N[C@@H](CCC(=O)O)C(=O)N[C@@H](CC(C)C)C(=O)N[C@@H](C)C(=O)N[C@H](C(=O)N[C@@H](CC(C)C)C(=O)N1CCC[C@H]1C(=O)N[C@@H](Cc1cnc[nH]1)C(=O)N[C@H](C(=O)N[C@@H](CCC(=O)O)C(=O)N[C@H](C(=O)NCC(=O)N[C@@H](CO)C(=O)NCC(=O)N[C@@H](CO)C(=O)N1CCC[C@H]1C(N)=O)[C@@H](C)O)[C@@H](C)O)[C@@H](C)O` ({C20 diacid-γGlu}-ASELSTAALGHLSAELHELATLPHTETGSGSP-NH2), the Activity came to 7% in data set [1] and 3% in data set [2]. For the same molecule, the EC50 in data set [3] was 0.026 nM; in [4] it was 0.012 nM; in data set [7] it was 0.123 nM. For the same molecule, the solubility at 18 h in data set [8], in data set [9], in data set [10], in data set [11], in data set [5] and in data set [12] was not below 200 µM throughout. The solubility at 18 h in [13] and in data set [14] was not below 200 µM in each case.
Take `CC(C)C[C@H](NC(=O)[C@H](C)NC(=O)[C@H](C)NC(=O)[C@@H](NC(=O)[C@H](CO)NC(=O)[C@H](CC(C)C)NC(=O)[C@H](CCC(=O)O)NC(=O)[C@H](CO)NC(=O)[C@H](C)NC(=O)[C@H](CCC(=O)O)NC(=O)CC[C@H](NC(=O)CCCCCCCCCCCCCCCCCCC(=O)O)C(=O)O)[C@@H](C)O)C(=O)NCC(=O)N[C@@H](CCCNC(=N)N)C(=O)N[C@@H](CC(C)C)C(=O)N[C@@H](CO)C(=O)N[C@@H](C)C(=O)N[C@@H](CCC(=O)O)C(=O)N[C@@H](CC(C)C)C(=O)N[C@@H](Cc1cnc[nH]1)C(=O)N[C@@H](CCC(=O)O)C(=O)N[C@@H](CC(C)C)C(=O)N[C@@H](C)C(=O)N[C@H](C(=O)N[C@@H](Cc1ccc(O)cc1)C(=O)N1CCC[C@H]1C(=O)N[C@@H](CCCNC(=N)N)C(=O)N[C@H](C(=O)N[C@@H](CCC(=O)O)C(=O)N[C@H](C(=O)NCC(=O)N[C@@H](CO)C(=O)NCC(=O)N[C@@H](CO)C(=O)N1CCC[C@H]1C(N)=O)[C@@H](C)O)[C@@H](C)O)[C@@H](C)O` ({C20 diacid-γGlu}-EASELSTAALGRLSAELHELATYPRTETGSGSP-NH2): the EC50 was 0.012 nM in data set [3], 0.014 nM in data set [4], 0.143 nM in data set [15] and 0.074 nM in [7]. Further, the solubility at 18 h in data set [8], in data set [9], in [10], in data set [11], in data set [5] and in [12] was not below 200 µM throughout. The solubility at 18 h in data set [13] and in [14] was not below 200 µM each time. Also, the IC50 in [6] was 1.59 nM.
Regarding `CC(C)C[C@H](NC(=O)CNC(=O)[C@H](CO)NC(=O)[C@H](C)NC(=O)[C@H](CCC(=O)O)NC(=O)CC[C@H](NC(=O)CCCCCCCCCCCCCCCCCCC(=O)O)C(=O)O)C(=O)N[C@@H](CO)C(=O)N[C@H](C(=O)N[C@@H](C)C(=O)N[C@@H](C)C(=O)N[C@@H](CC(C)C)C(=O)NCC(=O)N[C@@H](CCCNC(=N)N)C(=O)N[C@@H](CC(C)C)C(=O)N[C@@H](CO)C(=O)N[C@@H](CCC(N)=O)C(=O)N[C@@H](CCC(=O)O)C(=O)N[C@@H](CC(C)C)C(=O)N[C@@H](Cc1cnc[nH]1)C(=O)N[C@@H](CCC(=O)O)C(=O)N[C@@H](CC(C)C)C(=O)N[C@@H](CCC(N)=O)C(=O)N[C@H](C(=O)N[C@@H](Cc1ccc(O)cc1)C(=O)N1CCC[C@H]1C(=O)N[C@@H](CCCNC(=N)N)C(=O)N[C@H](C(=O)N[C@@H](CCC(=O)O)C(=O)N[C@H](C(=O)NCC(=O)N[C@@H](CO)C(=O)NCC(=O)N[C@H](C(=O)N[C@@H](Cc1ccc(O)cc1)C(N)=O)[C@@H](C)O)[C@@H](C)O)[C@@H](C)O)[C@@H](C)O)[C@@H](C)O` ({C20 diacid-γGlu}-EASGLSTAALGRLSQELHELQTYPRTETGSGTY-NH2), the Activity is recorded as 23% in data set [1] and 10% in data set [2]. In addition, the EC50 in [4] worked out at 0.023 nM; in [7], 0.092 nM. In addition, the solubility at 18 h in data set [8], in data set [9], in data set [10], in data set [5], in [12] and in data set [13] was not below 200 µM in each case. Moreover, the solubility at 18 h in data set [14] is not below 200 µM.
